Reference: patent US20260294846A1, “COMPOSITIONS AND METHODS FOR TREATING VULVAR AND VAGINAL ATROPHY (VVA)” (Daré Bioscience, Inc., priority 2023, published 2026)
“Also recorded” adds a separate entry of the source.

Experiments:
[1] = more potent than tamoxifen; cited from earlier work
endometrium = conditions: cited from earlier work
[2] = cited from earlier work
[3] = system: female New Zealand White rabbits (vagina, uterus, ovary); test: Study 858-0032-TX: 26/39-week intravaginal toxicity of tamoxifen in rabbits; format: in vivo, rabbit (New Zealand White)
Text: (§1) Tamoxifen is a selective estrogen receptor modulator (SERM) which has species and tissue specific estrogen agonist and antagonist properties. Given orally in women, tamoxifen has estrogen antagonist activity in breast tissue and estrogen agonist effects in the endometrium and vagina. When administered vaginally in women, there is reduced systemic exposure leading to reduced systemic side effects. The objective of this pre-clinical study was to test the safety, pharmacokinetics (PK) and toxicity of vaginal tamoxifen over a 3 and 9 month treatment period in female New Zealand White rabbits.
(§2) All animal studies were conducted under IACUC approvals. In study 3015-012, at Charles River Labs (Mattawan, MI, USA), 45 female rabbits were randomly assigned to either sham (saline), placebo, or 5, 10 or 20 mg/kg/dose of vaginal tamoxifen. Investigational product (IP) was administered intravaginally once daily for 14 days, then twice weekly for up to 10 weeks with necropsy at 12-weeks. In study 858-0032-TX, conducted at WuXi AppTec (Suzhou, Jiangsu, China), 40 female rabbits were randomly assigned to sham (saline), placebo, or 10 or 30 mg/kg/dose of vaginal tamoxifen. IP was administered daily for 14 days and then twice weekly. An interim necropsy was performed at 26-weeks and then at 39-weeks.

[4] = system: female New Zealand White rabbits (vagina, uterus, ovary); test: Study 3015-012: 12-week intravaginal toxicity of tamoxifen in rabbits; format: in vivo, rabbit (New Zealand White)
Text: as §1, §2

[5] = Systemic plasma pharmacokinetics of tamoxifen and metabolites after intravaginal DARE-VVA1; design: species or system human (women); conditions: human, in vivo, 20 mg
Text: In each treatment group, participants will have serial blood sampling for PK analysis, with venous samples drawn from an indwelling line. Dense sampling will be performed following the Day 1 and Day 56 administrations of a tamoxifen vaginal insert; trough samples will be collected prior to dosing on Days 4, 7, 10, 18, 28, and 42, and a final sample will be collected at follow-up on Day 63. Samples will be analyzed using validated methods to determine plasma concentrations of tamoxifen and 3 metabolites: 4-hydroxytamoxifen, N-desmethyl-tamoxifen, and N-desmethyl-4-hydroxytamoxifen (endoxifen). […]
Samples will be analyzed using validated methods to determine plasma concentrations of tamoxifen and 3 metabolites: 4-hydroxytamoxifen, N-desmethyltamoxifen, and N-desmethyl-4-hydroxytamoxifen (endoxifen).
The PK characterization of tamoxifen concentrations for each dose to be profiled will use noncompartmental analysis (NCA). […] Standard PK parameters assessed will include measures of the extent of absorption using estimates of the area under the plasma concentration-time curve (AUC), the maximum observed drug concentration (Cmax), and the time to reach maximum drug concentration (Tmax). […]

vagina = test: Vaginal pH; format: in vivo, human (women)
Text: Estrogenic effect measurements will include vaginal cytology (maturation index; percentage of basal and superficial cells) and vaginal pH at screening and baseline, every 2 weeks during treatment, and 1 week after treatment.
Vaginal swabs for determination of pH will be collected in accordance with the schedule of events (Table 4). The pH of vaginal secretions will be measured using pH paper.
Local estrogenic effect measurements included obtaining vaginal epithelial cells from the lateral vaginal sidewall and determining the VMI. The VMI is determined by categorizing the ratio (proportion in 100 cells) of the three types of vaginal epithelial cell types (parabasal, intermediate and superficial). A total VMI score was calculated as: % superficial cells+(0.5 x% intermediate cells)+(0 x % parabasal cells). The VMI and vaginal pH were measured at screening and baseline, and subsequently every 2 weeks during treatment and 1 week after treatment.

[6] = postmenopausal women, daily oral tamoxifen at least 4 years
[7] = 20 mg/kg/day, 12 weeks, cranial and mid vagina
[8] = 20 mg/kg/day, 12 weeks, intravaginal

Molecule: 4-hydroxytamoxifen [4-OHT]
- Potency relative to tamoxifen [1]: approximately 100 ×

Molecule: CC/C(=C(\c1ccccc1)c1ccc(OCCNC)cc1)c1ccccc1 [NDT, N-desmethyltamoxifen]
- Systemic potency relative to tamoxifen [1]: approximately 1.7 ×

Molecule: CC/C(=C(\c1ccccc1)c1ccc(OCCN(C)C)cc1)c1ccccc1 [tamoxifen, 1-(p-dimethylamino-ethoxphenyl)-2-ethyl-1,2-diphenylethylene]
- Endometrial risk relative to general postmenopausal population (endometrium; [6]): about two to three times that of the general postmenopausal population
- Risk of complex hyperplasia (endometrium; [6]): 3%
- Risk of endometrial carcinoma (endometrium; [6]): 2%
- Risk of simple hyperplasia (endometrium; [6]): approximately 12%
- Risk of endometrial hyperplasia (endometrium; premenopausal women, oral tamoxifen): no different than in the general premenopausal population
- Steady-state plasma concentration of NDT, range ([2]; 3 months oral daily 20 mg tamoxifen): 152 to 706 ng/mL
- Mean steady-state concentration of tamoxifen ([2]; oral 20 mg dose): 122 ng/mL
- Steady-state concentration of tamoxifen, range ([2]; oral 20 mg dose): 71-183
- Peak plasma concentration of NDT, range ([2]; oral tamoxifen): 10 to 20 ng/mL
- Maximum plasma concentration of tamoxifen, range ([2]; single oral dose 20 mg): 35 to 45 ng/mL
- Mean maximum plasma concentration of tamoxifen ([2]; single oral dose 20 mg): 40 ng/mL
- Adverse effects ([3]; 30 mg dose, 39 weeks): no observed adverse effects
- Females affected by uterine atrophy ([3]; 30 mg/day, 26 weeks): Four of five
- Ovary microscopy ([3]; 30 mg/kg/day, 26 weeks): moderate to marked atrophy of the interstitial cells in the ovary
- Uterine and ovarian weights ([3]; 30 mg/kg/day, 26 weeks): Product-related uterine and ovarian weight decreases
- Uterus microscopy ([3]; 30 mg/kg/day, 26 weeks): mild to moderate uterine atrophy
- Macroscopic changes ([3]; 26 weeks, any treatment group): no IP related macroscopic changes
- Systemic toxicity clinical findings ([3]; two studies, up to 39 weeks): no observed clinical findings which would be suspicious for systemic toxicity
- Uterine or endometrial hyperplasia ([3]; two studies, up to 39 weeks): no evidence of uterine or endometrial hyperplasia
- Local genital tract findings ([3]; vagina, uterus, ovary, up to 39 weeks): mostly organ atrophy
- Adverse effects ([4]; 20 mg dose, 12 weeks): no observed adverse effects
- Vagina microscopy, atrophy [4, 7]: minimal to mild diffuse atrophy; also recorded: diffuse vaginal atrophy
- Vagina microscopy, inflammatory cell infiltration [4, 7]: increased incidence and/or severity of minimal to mild mixed inflammatory cell infiltration; also recorded: increased incidence of vaginal mixed inflammatory cell infiltrates
- Ovary microscopy [4, 8]: atrophy of interstitial glands; also recorded: increased incidence of ovarian interstitial gland atrophy with decreased weights
- Paired ovary weights [4, 8]: decreases in the mean weights (absolute and relative to terminal body weight)
- Uterus/cervix weights [4, 8]: decreases in the mean weights (absolute and relative to terminal body weight); also recorded: decreased uterine weights
- Vaginal epithelial degeneration, erosion, ulceration ([4]; 12-week necropsy): no evidence of epithelial degeneration, erosion, or ulceration
- Other parameters ([4]; 12 weeks): no observed tamoxifen-related adverse effects on any of the other parameters
- Cmax at 240 h ([5]; Day 10, read-out: Single maximum plasma tamoxifen concentration): 12 ng/mL
- concentration at 240 h ([5]; Day 10 trough, read-out: Plasma tamoxifen, median): 8.29 ng/mL
- Improvement in vaginal pH (vagina; 10 mg and 20 mg, 8-week treatment): most improvement in vaginal pH
- Change in vaginal pH, baseline to end of treatment (vagina; all active doses combined, Day 56): statistically significant decreases in vaginal pH
- Median end of treatment vaginal pH levels, range (vagina; end of treatment): 5.0-5.3

Molecule: CC/C(=C(\c1ccc(O)cc1)c1ccc(OCCNC)cc1)c1ccccc1 [endoxifen, N-desmethyl-4-hydroxytamoxifen]
- Potency relative to tamoxifen [1]: approximately 100 ×
